B1: ΔPS ΔC-1313: form of α-1,3 BrS truncated of the signal peptide and C-terminal (position 1313) (protein)
chain: DTQTPVGTTQSQQDLTGQTGQDKPTTKEVIDKKEPVPQVSAQNVGDLSADAKTPKADDKQDTQPTNAQLPDQGNKQTNSNSDKGVKESTTAPVKTTDVPSKSVAPETNTSINGGQYVEKDGQFVYIDQSGKQVSGLQNIEGHTQYFDPKTGYQTKGELKNIDDNAYYFDKNSGNGRTFTKISNGSYSEKDGMWQYVDSHDKQPVKGLYDVEGNLQYFDLSTGNQAKHQIRSVDGVTYYFDADSGNATAFKAVTNGRYAEQTTKDKDGNETSYWAYLDNQGNAIKGLNDVNGEIQYFDEHTGEQLKGHTATVDGTTYYFEGNKGNLVSVVNTAPTGQYKINGDNVYYLDNNNEAIKGLYGINGNLNYFDLATGIQLKGQAKNIDGIGYYFDQNNGNGEYRYSLTGPVVKDVYSQHNAVNNLSANNFKNLVDGFLTAETWYRPAQILSHGTDWVASTDKDFRPLITVWWPNKDIQVNYLKLMQQIGILDNSVVFDTNNDQLVLNKGAESAQIGIEKKVSETGNTDWLNELLFAPNGNQPSFIKQQYLWNVDSEYPGGWFQGGYLAYQNSDLTPYANTNPDYRTHNGLEFLLANDVDNSNPVVQAEQLNWLYYLMNFGQITANDSNANFDSMRIDAISFVDPQIAKKAYDLLDKMYGLTDNEAVANQHISIVEAPKGETPITVEKQSALVESNWRDRMKQSLSKNATLDKLDPDPAINSLEKLVADDLVNRSQSSDKDSSTIPNYSIVHAHDKDIQDTVIHIMKIVNNNPNISMSDFTMQQLQNGLKAFYEDQHQSVKKYNQYNIPSAYALLLTNKDTVPRVFYGDMYQDYGDDLDGGQYMATKSIYYNAIEQMMKARLKYVAGGQIMAVTKIKNDGINKDGTNKSGEVLTSVRFGKDIMDAQGQGTAESRNQGIGVIVSNSSGLELKNSDSITLHMGIAHKNQAYRALMLTNDKGIVNYDQDNNAPIAWTNDHGDLIFTNQMINGQSDTAVKGYLNPEVAGYLAVWVPVGANDNQDARTVTTNQKNTDGKVLHTNAALDSKLMYEGFSNFQKMPTRGNQYANVVITKNIDLFKSWGITDFELAPQYRSSDGKDITDRFLDSIVQNGYGLSDRYDLGFKTPTKYGTDQDLRKAIERLHQAGMSVMADFVANQIYGLHADKEVVSAQHVNINGDTKLVVDPRYGTQMTVVNSVGGGDYQAKYGGEYLDTISKLYPGLLLDSNGQKIDLSTKIKEWSAKYLNGSNIPQVGMGYVLKDWNNGQYFHILDKEGQYSLPTQL
modifications: Delta PS, delta C-1313

Assays:
Type in all cases: biochemical
[1] = Reaction of the enzyme on sucrose alone (HPAEC-PAD, HPSEC); settings: no acceptor
Description: The determination of the enzymatic activity of the polypeptide according to the invention can be determined by methods known to those skilled in the art, such as by use of the High Performance Liquid Chromatography Technique on reaction products with the polypeptide of the invention (MOULIS et al., J. Biol. Chem, 2006) or assay of reducing sugars by the method in dinitrosalycilic acid (SUMNER & HOWELL, 1935). More specifically, this enzymatic activity is expressed in glucansucrase units which represents the amount of enzyme which liberates one μmol of fructose per minute at 30° C. with a concentration of 100 g·L−1 sucrose and a buffer at pH 5.2 comprising 50 mM sodium acetate. This activity is preferably determined by measuring the initial rate of production of reducing sugars (fructose) by using the DNS method (SUMNER & HOWELL). To do this, a standard range of 0-2 g·L−1 of fructose is established. During kinetics, 100 μl of reaction medium are then sampled and the reaction is stopped by adding an equal volume of reagent. The samples were then heated for 5 min at 95° C., cooled in ice, diluted in half with water and the absorbance is read at 540 nm.
To characterise the functional properties of this putative transglucosylase, the enzyme was first implemented on sucrose alone, a natural substrate of enzymes of the GH70 family.
More specifically, monosaccharides, disaccharides, and small oligosaccharides (degree of polymerisation less than 20) were separated and quantified by HPAEC-PAD (High Performance Anion Exchange Chromatography with Pulsed Amperometric Detection) on column Dionex CarboPac PA-100. A sodium acetate gradient of 6 to 300 mM in 36 min, containing 150 mM of sodium hydroxide used to separate glucose, fructose, sucrose, leucrose, isomaltooligosaccharides, etc. Standard ranges of 5, 10, 15 and 20 mg·kg-1 of these sugars were performed to allow quantification. These samples were diluted for a total sugar concentration of 25 mg·kg-1. […]

[2] = Acceptor reaction with sucrose and dextran 1500 Da; α-1,3 connections by proton NMR; settings: for factor multiplying the activity of the enzyme on addition of dextran 1500 Da as acceptor: compared to the activity measured on sucrose alone
Description: While nothing presaged that this protein had still an activity, the latter (as well as its truncated form) was also incubated in the presence of sucrose and a linear dextran (glucan composed exclusively of α-1,6 bonds) of a molecular weight of 1500 Da.
(§1) We incubated for 16 h at 30° C., enzyme in sucrose (from 25 g/L to 170 g/L) in the presence of dextrans of variable molecular weight (from 1500 Da to 2.10^6 Da) and of varying concentration of 30 g/L to 100 g/L.; the sucrose/acceptor (M/M) ratio varies depending on the desired connection rate in α-1,3. The reaction medium was buffered with a solution with final sodium acetate with 50 mM, pH 5.2. A sample at initial and final times of the reaction was conducted, heated at 95° C. for 5 minutes to stop the reaction and analysed by various chromatographic (HPAEC-PAD, HPSEC) and structural (proton NMR) techniques.
More specifically, monosaccharides, disaccharides, and small oligosaccharides (degree of polymerisation less than 20) were separated and quantified by HPAEC-PAD (High Performance Anion Exchange Chromatography with Pulsed Amperometric Detection) on column Dionex CarboPac PA-100. A sodium acetate gradient of 6 to 300 mM in 36 min, containing 150 mM of sodium hydroxide used to separate glucose, fructose, sucrose, leucrose, isomaltooligosaccharides, etc. Standard ranges of 5, 10, 15 and 20 mg·kg-1 of these sugars were performed to allow quantification. These samples were diluted for a total sugar concentration of 25 mg·kg-1.
Analyses by HPSEC (High Performance Size Exclusion Chromatography-) were used to estimate the molecular weight of oligosaccharide populations or of polymers synthesised during the reactions. The separation was done using two columns SHODEX (OH-Pack SB-805 and 802.5) arranged in series. Solutions of 1, 2.5, 5 and 10 gL−1 sucrose, fructose, maltoheptaose, Dextran 11.3 kDa, 68.4 kDa, 503 kDa, 2000 kDa served as benchmarks. The samples were diluted 10 times to reach a maximum concentration of 10 g·kg-1. A solution of 0.45 M NaNO3+1% (v/v) ethylene glycol in 0.3 mL·min-1 is used as an eluent, and the samples should be diluted in the mobile phase. Column and precolumn were maintained at 70° C., detection is performed by refractometry.
(§2) For the NMR analyses, the synthesised polymers were stored at −80° C. overnight and then be freeze-dried (CHRIST ALPHA apparatus 2-4). 10 mg of the powder obtained are then dissolved in 0.5 mL of deuterated water and analysed by proton NMR. The 1H NMR spectra were acquired on a spectrometer BRUKER AVANCE (500 MHz). The data were then treated with the TOPSPIN 3.0 software.

[3] = Acceptor reaction with sucrose and higher molecular weight dextrans; proton NMR; settings: dextran 68.4 kDa, 503 kDa and 2×10^6 Da
Description: as §1, §2
Tests were performed out on particular dextran 68.4 kDa, 503 kDa and 2×10^6 Da. Based on proton NMR analyses, the high molecular weight dextrans have 50% of α-1,3 bonds (FIGS. 7 and 8). Here again we find the comb-like structure described in the '80 s in the work on the native glucan produced by the strain.

[4] = Screening of a library of acceptors with sucrose; settings: FOS and XOS as acceptors
Description: The enzyme α-1,3 BrS is put in the presence of its natural substrate (sucrose) and a panel of different acceptors, including dextrans connected in α-1.2 (BRISON et al., 2009), of mutans, of alternans, of reuterans, of fructans and of fructooligosaccharides, of polyphenols, of flavonoids, of amino acids. The reaction products are analysed by various chromatographic techniques (mass spectrometry, HPAEC-PAD) and by NMR.

Molecule	ability to produce polymers of glucosyl units from sucrose alone [1]	connection rate in α-1,3 on a dextran 1500 Da [2] [%]	factor multiplying the activity of the enzyme on addition of dextran 1500 Da as acceptor [2]	substitution rate (α-1,3) ([2]; sucrose/Dextran 1500 ratio 1/2)	rate of substitution (α-1,3) ([2]; sucrose/Dextran 1500 ratio 1/3)	degree of substitution (α-1,3) ([2]; sucrose/Dextran 1500 ratio above 1, increasing the substrate concentration) [%]	degree of substitution (α-1,3) ([2]; sucrose/Dextran 1500 ratio greater than or equal to 1)	α-1,3 bonds of the high molecular weight dextrans after reaction [3] [%]	glycosylation of oligosaccharide acceptors [4]	rate of α-1,3 bonds according to the sucrose/dextran 1500 Da ratio, compared with the whole enzyme ([2]; truncated enzyme, same substrate (FIG. 6))
GH L. fallax: orthologue protein from Leuconostoc fallax KCTC 3537, about 54% overall identity with α-1,3 BrS	inability to polymerise the glucosyl units	37								
α-1,3 BrS: transglucosylase of 1888 amino acids from L. citreum NRRL B-742 forming α-1,3 connections of glucosyl units on acceptors	no ability to produce polymers of glucosyl units		26	lower than 25%	below 15%	~50	about 40%	50	allows the glycosylation of oligosaccharides	
B1	no ability to produce polymers of glucosyl units		26					50		same results
